The results in this text go back to patent US6046218A, “Pyridine derivative and medicament containing the same as an effective ingredient” (SS Pharmaceutical Co., Ltd., priority 1996, dated 2000).

As usually defined, the inhibition is the change of the read-out against control, counted positive when it falls.

The test system of one experiment is IL-4 production. Nature of the experiment: Test 1: inhibition of IL-4 production in human T-cell strain ATL-16T(-) stimulated with PMA (R&D Systems EIA). In kind it is cell-based. To be noted: 10^-5 M, ATL-16T(-) 1×10^6 cells/0.5 ml/well, 20 nM PMA, 48 hours, read-out: Inhibition rate of IL-4 production. The method, then:
Test 1: Test on the inhibition of IL-4 production
Into individual wells of a 48-well microplate, the human T-cell strain ATL-16T(-) was poured at a concentration of 1×10^6 cells/0.5 ml/well (n=3), followed by the addition of a stimulator (20 nM of PMA) and a medicament at the same time. The resulting mixture was incubated in 5% CO2 at 37° C. for 48 hours. After incubation, 100 μl of the supernatant were collected and subjected to measurement by a human IL-4 EIA kit (R&D SYSTEMS, INC.). The inhibition rate was calculated according to the following formula. [formula]
For the molecule `CCOC(=O)CCCOc1cc(/C=C/C(=O)c2ccccc2)ncc1OC` [Ex. 44, Ethyl 4-[5-methyoxy-2-(3-oxo-3-phenyl-1-propenyl)-4-pyridyloxy]butanoate], the inhibition at 10 µM was 89.1%.

For the molecule `COc1cnc(/C=C/C(=O)c2ccccc2)cc1O` [Ex. 19, 4-hydroxy-5-methoxy-2-(3-oxo-3-phenyl-1-propenyl)-pyridine], the inhibition at 10 µM is 106%.

For `CCCCCC(=O)/C=C/c1cc(OCCCCCC(=O)OC)c(OC)cn1` [Ex. 15, Methyl 6-[5-methoxy-2-(3-oxo-1-octenyl)-4-pyridyloxy]hexanoate], the inhibition at 10 µM stood at 76.8%.

As for `O=C(/C=C/c1cc(O)c(O)cn1)c1ccccc1` [Ex. 20, 4,5-Dihydroxy-2-(3-oxo-3-phenyl-1-propenyl)pyridine], the inhibition at 10 µM amounted to 97.9%.

As to `COc1cnc(/C=C/C(=O)c2ccccc2)cc1OC` [Ex. 1, 4,5-dimethoxy-2-(3-oxo-3-phenyl-1-propenyl)pyridine], the inhibition at 10 µM was determined as 97.5%.

The same experiment, now with this note: 10^-6 M, ATL-16T(-) 1×10^6 cells/0.5 ml/well, 20 nM PMA, 48 hours, read-out: Inhibition rate of IL-4 production.
As for `CCOC(=O)CCCOc1cc(/C=C/C(=O)c2ccccc2)ncc1OC` [Ex. 44, Ethyl 4-[5-methyoxy-2-(3-oxo-3-phenyl-1-propenyl)-4-pyridyloxy]butanoate], the inhibition at 1 µM came out at 86.1%.

With `COc1cnc(/C=C/C(=O)c2ccccc2)cc1O` [Ex. 19, 4-hydroxy-5-methoxy-2-(3-oxo-3-phenyl-1-propenyl)-pyridine], the inhibition at 1 µM came out at 98.1%.

With `CCCCCC(=O)/C=C/c1cc(OCCCCCC(=O)OC)c(OC)cn1` [Ex. 15, Methyl 6-[5-methoxy-2-(3-oxo-1-octenyl)-4-pyridyloxy]hexanoate], the inhibition at 1 µM was determined as 58.9%.

Turning to `O=C(/C=C/c1cc(O)c(O)cn1)c1ccccc1` [Ex. 20, 4,5-Dihydroxy-2-(3-oxo-3-phenyl-1-propenyl)pyridine], the inhibition at 1 µM came out at 96.4%.

In the case of `COc1cnc(/C=C/C(=O)c2ccccc2)cc1OC` [Ex. 1, 4,5-dimethoxy-2-(3-oxo-3-phenyl-1-propenyl)pyridine], the inhibition at 1 µM stood at 87.9%.

The experiment is the same for the next values; noted with them: 10^-7 M, ATL-16T(-) 1×10^6 cells/0.5 ml/well, 20 nM PMA, 48 hours, read-out: Inhibition rate of IL-4 production.
Turning to `CCOC(=O)CCCOc1cc(/C=C/C(=O)c2ccccc2)ncc1OC` [Ex. 44, Ethyl 4-[5-methyoxy-2-(3-oxo-3-phenyl-1-propenyl)-4-pyridyloxy]butanoate], the inhibition at 0.1 µM amounted to 56.2%.

For the molecule `COc1cnc(/C=C/C(=O)c2ccccc2)cc1O` [Ex. 19, 4-hydroxy-5-methoxy-2-(3-oxo-3-phenyl-1-propenyl)-pyridine], the inhibition at 0.1 µM was 95.1%.

Turning to `CCCCCC(=O)/C=C/c1cc(OCCCCCC(=O)OC)c(OC)cn1` [Ex. 15, Methyl 6-[5-methoxy-2-(3-oxo-1-octenyl)-4-pyridyloxy]hexanoate], the inhibition at 0.1 µM is 55.9%.

Regarding `O=C(/C=C/c1cc(O)c(O)cn1)c1ccccc1` [Ex. 20, 4,5-Dihydroxy-2-(3-oxo-3-phenyl-1-propenyl)pyridine], the inhibition at 0.1 µM worked out at 90.6%.

Take `COc1cnc(/C=C/C(=O)c2ccccc2)cc1OC` [Ex. 1, 4,5-dimethoxy-2-(3-oxo-3-phenyl-1-propenyl)pyridine]: the inhibition at 0.1 µM turned out to be 80.3%.

The experiment is the same for the next values; noted with them: 10^-8 M, ATL-16T(-) 1×10^6 cells/0.5 ml/well, 20 nM PMA, 48 hours, read-out: Inhibition rate of IL-4 production.
As to `CCOC(=O)CCCOc1cc(/C=C/C(=O)c2ccccc2)ncc1OC` [Ex. 44, Ethyl 4-[5-methyoxy-2-(3-oxo-3-phenyl-1-propenyl)-4-pyridyloxy]butanoate], the inhibition at 0.01 µM worked out at 46.5%.

For the molecule `COc1cnc(/C=C/C(=O)c2ccccc2)cc1O` [Ex. 19, 4-hydroxy-5-methoxy-2-(3-oxo-3-phenyl-1-propenyl)-pyridine], the inhibition at 0.01 µM was 83.8%.

Consider `CCCCCC(=O)/C=C/c1cc(OCCCCCC(=O)OC)c(OC)cn1` [Ex. 15, Methyl 6-[5-methoxy-2-(3-oxo-1-octenyl)-4-pyridyloxy]hexanoate], for which the inhibition at 0.01 µM came to 49.1%.

With `O=C(/C=C/c1cc(O)c(O)cn1)c1ccccc1` [Ex. 20, 4,5-Dihydroxy-2-(3-oxo-3-phenyl-1-propenyl)pyridine], the inhibition at 0.01 µM is 84%.

Take `COc1cnc(/C=C/C(=O)c2ccccc2)cc1OC` [Ex. 1, 4,5-dimethoxy-2-(3-oxo-3-phenyl-1-propenyl)pyridine]: the inhibition at 0.01 µM came to 59.9%.

Another experiment relates to IL-5 production. Nature of the experiment: Test 3: inhibition of IL-5 production in human PBMC stimulated with ConA. In kind it is cell-based. As to conditions: 10^-6 M, 10 μg/ml ConA, 48 hours, read-out: Inhibition rate of IL-5 production. A digest of the protocol:
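Human PBMC from a normal volunteer, 1×10^6 cells/ml in AIM-V, stimulated with 10 μg/ml ConA alongside compound and incubated 48 h at 37 °C, 5% CO2. Supernatant IL-5 quantified by EIA; inhibition rate calculated from a formula.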
Turning to `CCOC(=O)CCCOc1cc(/C=C/C(=O)c2ccccc2)ncc1OC` [Ex. 44, Ethyl 4-[5-methyoxy-2-(3-oxo-3-phenyl-1-propenyl)-4-pyridyloxy]butanoate], the inhibition at 1 µM is 90.6%.

On to `COc1cnc(/C=C/C(=O)c2ccccc2)cc1O` [Ex. 19, 4-hydroxy-5-methoxy-2-(3-oxo-3-phenyl-1-propenyl)-pyridine], for which the inhibition at 1 µM was determined as 94.8%.

For `CCCCCC(=O)/C=C/c1cc(OCCCCCC(=O)OC)c(OC)cn1` [Ex. 15, Methyl 6-[5-methoxy-2-(3-oxo-1-octenyl)-4-pyridyloxy]hexanoate], the inhibition at 1 µM came out at 79.2%.

On to `O=C(/C=C/c1cc(O)c(O)cn1)c1ccccc1` [Ex. 20, 4,5-Dihydroxy-2-(3-oxo-3-phenyl-1-propenyl)pyridine], for which the inhibition at 1 µM is 92.8%.

On to `COc1cnc(/C=C/C(=O)c2ccccc2)cc1OC` [Ex. 1, 4,5-dimethoxy-2-(3-oxo-3-phenyl-1-propenyl)pyridine], for which the inhibition at 1 µM worked out at 95.3%.

For the next experiment, the system named is IgE production. Nature of the experiment: Test 4: inhibition of IgE production by spleen cells of orally treated sensitized mice. To be noted: Mus musculus, po, 100 mg/kg orally once a day, Day 1 to Day 10, DNP-BSA 5 μg/ml, 24 hours, read-out: Inhibition rate of IgE production. Format: in vivo, Balb/c mouse. The method, then: (§1) Test 4: Test on the inhibition of IgE production
(§2) To a Balb/c mouse, the DNP-labeled ascaris antigen (5 μg) and Alum (1 mg) were intraperitoneally administered on Day 1 and Day 6 to sensitize the mouse with the antibody. From Day 1 to Day 10, a medicament was orally administered at a dose of 100 mg/kg once a day. On Day 11, the mouse was subjected to splenectomy and the spleen so obtained was untangled into its cells. To 5×10^7 cells/ml of the spleen cells so obtained, DNP-BSA (5 μg/ml) was added, followed by incubation at 37° C. for 24 hours. After incubation, 100 μl of the supernatant were collected and subjected to the measurement an IgE measuring kit (Yamasa Co., Ltd.). In order to determine IgG1, IgG2a and IgM, the absorbance of the incubated supernatant was measured by the EIA method and provided for comparison. The inhibition rate of IgE production was calculated according to the below-described formula. Inhibition rates of the IgG1, IgG2a and IgM production were similarly calculated, respectively. [formula]
As to `CCOC(=O)CCCOc1cc(/C=C/C(=O)c2ccccc2)ncc1OC` [Ex. 44, Ethyl 4-[5-methyoxy-2-(3-oxo-3-phenyl-1-propenyl)-4-pyridyloxy]butanoate], the inhibition at 100 mg/kg is 26.7%.

Regarding `COc1cnc(/C=C/C(=O)c2ccccc2)cc1O` [Ex. 19, 4-hydroxy-5-methoxy-2-(3-oxo-3-phenyl-1-propenyl)-pyridine], the inhibition at 100 mg/kg is 30.6%.

For `CCCCCC(=O)/C=C/c1cc(OCCCCCC(=O)OC)c(OC)cn1` [Ex. 15, Methyl 6-[5-methoxy-2-(3-oxo-1-octenyl)-4-pyridyloxy]hexanoate], the inhibition at 100 mg/kg was determined as 23.5%.

As for `O=C(/C=C/c1cc(O)c(O)cn1)c1ccccc1` [Ex. 20, 4,5-Dihydroxy-2-(3-oxo-3-phenyl-1-propenyl)pyridine], the inhibition at 100 mg/kg stood at 23.7%.

For `COc1cnc(/C=C/C(=O)c2ccccc2)cc1OC` [Ex. 1, 4,5-dimethoxy-2-(3-oxo-3-phenyl-1-propenyl)pyridine], the inhibition at 100 mg/kg is 42%.

A further experiment deals with IgM production. Nature of the experiment: Test 4 (comparison): inhibition of IgM production. In kind it is in vivo, Balb/c mouse. As to conditions: Mus musculus, po; 100 mg/kg orally once a day, Day 1 to Day 10; spleen cells, DNP-BSA 5 μg/ml, 24 hours; read-out: Inhibition rate of IgM production. The method, then:
as §1, §2
Turning to `CCOC(=O)CCCOc1cc(/C=C/C(=O)c2ccccc2)ncc1OC` [Ex. 44, Ethyl 4-[5-methyoxy-2-(3-oxo-3-phenyl-1-propenyl)-4-pyridyloxy]butanoate], the inhibition at 100 mg/kg is -4.2%.

Turning to `COc1cnc(/C=C/C(=O)c2ccccc2)cc1O` [Ex. 19, 4-hydroxy-5-methoxy-2-(3-oxo-3-phenyl-1-propenyl)-pyridine], the inhibition at 100 mg/kg was 1.2%.

Consider `CCCCCC(=O)/C=C/c1cc(OCCCCCC(=O)OC)c(OC)cn1` [Ex. 15, Methyl 6-[5-methoxy-2-(3-oxo-1-octenyl)-4-pyridyloxy]hexanoate], for which the inhibition at 100 mg/kg was -5.4%.

As for `O=C(/C=C/c1cc(O)c(O)cn1)c1ccccc1` [Ex. 20, 4,5-Dihydroxy-2-(3-oxo-3-phenyl-1-propenyl)pyridine], the inhibition at 100 mg/kg is -6.2%.

For `COc1cnc(/C=C/C(=O)c2ccccc2)cc1OC` [Ex. 1, 4,5-dimethoxy-2-(3-oxo-3-phenyl-1-propenyl)pyridine], the inhibition at 100 mg/kg is -8%.

A further experiment relates to IgG1 production. Nature of the experiment: Test 4 (comparison): inhibition of IgG1 production. In kind it is in vivo, Balb/c mouse. To be noted: Mus musculus, po; 100 mg/kg orally once a day, Day 1 to Day 10; spleen cells, DNP-BSA 5 μg/ml, 24 hours; read-out: Inhibition rate of IgG1 production. How it is done:
as §1, §2
As for `CCOC(=O)CCCOc1cc(/C=C/C(=O)c2ccccc2)ncc1OC` [Ex. 44, Ethyl 4-[5-methyoxy-2-(3-oxo-3-phenyl-1-propenyl)-4-pyridyloxy]butanoate], the inhibition at 100 mg/kg is 8%.

In the case of `COc1cnc(/C=C/C(=O)c2ccccc2)cc1O` [Ex. 19, 4-hydroxy-5-methoxy-2-(3-oxo-3-phenyl-1-propenyl)-pyridine], the inhibition at 100 mg/kg is 8%.

Consider `CCCCCC(=O)/C=C/c1cc(OCCCCCC(=O)OC)c(OC)cn1` [Ex. 15, Methyl 6-[5-methoxy-2-(3-oxo-1-octenyl)-4-pyridyloxy]hexanoate], for which the inhibition at 100 mg/kg came out at 9.9%.

For the molecule `O=C(/C=C/c1cc(O)c(O)cn1)c1ccccc1` [Ex. 20, 4,5-Dihydroxy-2-(3-oxo-3-phenyl-1-propenyl)pyridine], the inhibition at 100 mg/kg was found to be 7.4%.

As for `COc1cnc(/C=C/C(=O)c2ccccc2)cc1OC` [Ex. 1, 4,5-dimethoxy-2-(3-oxo-3-phenyl-1-propenyl)pyridine], the inhibition at 100 mg/kg stood at 1.6%.

The next experiment deals with IgG2a production. Nature of the experiment: Test 4 (comparison): inhibition of IgG2a production. To be noted: Mus musculus, po; 100 mg/kg orally once a day, Day 1 to Day 10; spleen cells, DNP-BSA 5 μg/ml, 24 hours; read-out: Inhibition rate of IgG2a production. Format: in vivo, Balb/c mouse. The method, then:
as §1, §2
On to `CCOC(=O)CCCOc1cc(/C=C/C(=O)c2ccccc2)ncc1OC` [Ex. 44, Ethyl 4-[5-methyoxy-2-(3-oxo-3-phenyl-1-propenyl)-4-pyridyloxy]butanoate], for which the inhibition at 100 mg/kg was -2.2%.

As for `COc1cnc(/C=C/C(=O)c2ccccc2)cc1O` [Ex. 19, 4-hydroxy-5-methoxy-2-(3-oxo-3-phenyl-1-propenyl)-pyridine], the inhibition at 100 mg/kg is 0.9%.

With `CCCCCC(=O)/C=C/c1cc(OCCCCCC(=O)OC)c(OC)cn1` [Ex. 15, Methyl 6-[5-methoxy-2-(3-oxo-1-octenyl)-4-pyridyloxy]hexanoate], the inhibition at 100 mg/kg was determined as 4.6%.

On to `O=C(/C=C/c1cc(O)c(O)cn1)c1ccccc1` [Ex. 20, 4,5-Dihydroxy-2-(3-oxo-3-phenyl-1-propenyl)pyridine], for which the inhibition at 100 mg/kg was determined as 1.3%.

For the molecule `COc1cnc(/C=C/C(=O)c2ccccc2)cc1OC` [Ex. 1, 4,5-dimethoxy-2-(3-oxo-3-phenyl-1-propenyl)pyridine], the inhibition at 100 mg/kg is 4.6%.
